Laboratory results: patent publication US20100216661A1, “Diagnostic Assay” (priority 2007, published 2010)
Blank lines part the entries; values can stand above or below the substance they belong to.

Experiments:
[1] = tested on: anti-Fy^b monoclonal antibody (LM447); test: LiquiChip Ni-NTA microsphere bead assay (Luminex 100), anti-Fy^b; type: binding, Murine; settings: FIG. 11; peptide with C-terminal 6 Histidine tag; Luminex 100 Analyser
Method: (§1) Further confirmation that the peptide mimotopes can specifically bind antibodies raised to native blood group antigens was achieved following the immobilisation of peptide mimotopes onto polystyrene LiquiChip Ni-NTA microsphere beads (Qiagen).
(§2) Peptide mimotopes (e.g. Fyb16; RhD12) were synthesised with a C-terminal tag consisting of 6 Histidine amino acids. Stock solutions (4 μg/ml) of the 6×His tagged peptide mimotopes were prepared in PBS/0.1% BSA. The peptides were immobilised onto the beads using the Ni-NTA groups attached to the surface of the beads, as follows. A 50 μl volume of a 4 μg/ml peptide stock (Fyb16 or RhD12) was mixed with an equal volume of LiquiChip Ni-NTA beads (Bead 50 or Bead 52, respectively). Following incubation with mixing at 4° C. overnight, the Bead/peptide mixture was diluted with 900 μl of PBS/0.1% BSA. The Bead/peptide mixture was vortexed for 2 minutes and then a 10 μl volume was aliquoted into the well of a 96-well, round-bottomed. ELISA plate (Nunc). […] Confirmation of bound monoclonal antibody was determined by the detection of a phycoerythrin fluorochrome signal. The intensity of the signal equates to the quantity of monoclonal antibody bound to the immobilised peptide mimotope.

[2] = tested on: anti-Fy^b monoclonal antibody (LM447); test: Modified gel agglutination assay with superparamagnetic TALON beads, anti-Fy^b; type: binding, Murine; settings: FIG. 14; His-tagged peptide; TALON Dynabeads; NaCl gel card with sheep anti-mouse IgG; read visually; anti-RhD T27 as comparison chamber
Method: (§3) The ability of peptide mimotopes to specifically bind antibodies was further tested using superparamagnetic polystyrene beads (TALON Dynabeads; Invitrogen) in a modified gel agglutination assay.
(§4) A 50 μl volume of the magnetic beads was added to 700 μl of TBS (50 mM Tris-HCl pH7.5; 150 mM NaCl). Following mixing for 5 minutes at room temperature, the magnetic beads were isolated using a Magnetic Particle Concentrator (Invitrogen). The supernatant was discarded and the beads were washed for 5 minutes in 700 μl of TBS. The beads were again separated from the buffer using the MPC magnet, and then resuspended in 700 μl of TBS. Peptide mimotopes (e.g. Fyb16; RhD12) were synthesised with a C-terminal tag consisting of 6 Histidine amino acids. Stock solutions (100 μg/ml) of the 6×His tagged peptide mimotopes were prepared in PBS.
To test the binding of a murine monoclonal antibody (e.g. LM447: anti-Fy^b monoclonal antibody), a 1 μl volume of sheep anti-mouse IgG is first added to the reaction chamber of an NaCl gel card and allowed to equilibrate with the gel matrix for 10 minutes at room temperature, prior to the addition of a 50 μl volume of diluted TALON beads, a 50 μl volume of diluted His-tagged peptide mimotope (e.g. Fyb16) and 100 μl of the test murine monoclonal antibody (e.g. LM447: anti-Fy^b). […] Again the reaction was read visually.

[3] = tested on: anti-RhE monoclonal antibody E0002; test: SPOTs membrane hybridisation with anti-RhE monoclonal E0002; type: binding, Human; settings: FIG. 9; 36 RhE peptide mimotopes; CPep75 (Spot 37), CPep76 (Spot 38) negative controls
Method: (§5) The peptide mimotopes were synthesised by the SPOT method (Frank; 1992) using F-moc chemistry. The peptides were anchored to an amino-PEG derivatised cellulose membrane (Intavis AG) and synthesised as discrete spots. Synthesis was by stepwise elongation of the peptide chain from C-terminus to the N-terminus, by manual pipetting of the respective amino acids, according to the Sigma Genosys protocol. Incubation times were modified when using Intavis AG membranes. After addition of the final amino acid, the terminal residues and side chains of the peptides were deprotected and the membrane was washed with methanol; air dried and then stored at −20° C. prior to use.
A membrane was placed in a 50 ml Falcon tube and blocked overnight at 4° C. with gentle agitation in TBS/0.25% Tween 20/5% skimmed milk powder. A 2 μg/ml dilution of the primary (1°) antibody (monoclonal or polyclonal) was prepared in TBS/0.25% Tween20/5% skimmed milk powder before incubation with the membrane for 1 hour at room temperature on a spiral rotor. Following 4 washes, each for 5 minutes with 20 ml of TBS/0.25% Tween20, the membrane was incubated for 1 hour at room temperature with a 1/5000 dilution of the secondary (2°) antibody, prepared in TBS/0.25% Tween20/5% skimmed milk powder. Peroxidase labelled rabbit anti-mouse IgG (Sigma) was used for the detection of the murine anti-Fy^a (LM487) and anti-Fy^b (LM447) 1° antibodies and peroxidase labelled goat anti-human IgG (Pharmacia) for the detection of the human 1° antibodies. Following 4 washes, each for 5 minutes with 20 ml of TBS/0.25% Tween20, the membrane was blotted to remove excess fluid. Bound antibody was detected by chemiluminescence. ECL detection reagents (Amersham Biosciences) were mixed and overlaid on the membrane for 2 minutes. The chemiluminescent substrate was removed and the membrane blotted to remove excess fluid. Positive spots were visualised following exposure to Hyperfilm ECL (Amersham Biosciences) for a series of short incubation times (5 seconds to 10 minutes).
The RhD, RhE and Rhe peptide mimotopes (see Tables 4 & 5) were synthesised by SPOTs and hybridisation of the membranes was undertaken with the appropriate antibodies (Table 1). FIGS. 7-10 show examples of peptide mimotopes reacting specifically with the antibody originally used in their selection.

[4] = tested on: anti-RhE monoclonal antibody E0002 (NaTH110-1D6); test: Biopanning of phage-peptide libraries with anti-RhE E0002; type: binding, Human; settings: IgM antibody
Excerpt: (§6) Three different phage libraries from New England Biolabs. (Ph.D. 7 and Ph.D. 12 displaying linear 7- and 12-mer peptides, respectively and Ph.D. C7C displaying 7-mer peptides constrained by a disulphide bridge at their termini) and a linear 15mer library (kindly provided by Prof. George P. Smith, University of Missouri) were used in biopanning experiments with 10 different monoclonal antibodies and a polyclonal preparation (Table 1).
For each target antibody/library combination, a separate well of a 96-well Immulon 4 flat-bottomed ELISA plate (Thermo Labsystems) was coated with 5 μg of antibody in 150 μl ELISA coating buffer (15 mM Na2CO3, 35 mM NaHCO3, pH9.6). Plates were sealed and incubated at 4° C. overnight. Unbound antibody was discarded and 350 μl of blocking buffer (0.1M NaHCO3/3% skimmed milk powder) was added to each well. Plates were sealed and incubated for 1 hour at 4° C. The blocking buffer was removed and the wells were washed six times with 300 μl TBS/0.1% Tween 20. Approximately 2×10^11 plaque forming units (pfu) in 100 μl TBS/0.1% Tween 20 were added to each well and the plates were incubated at room temperature for 1 hour. Wells were washed ten times with 300 μl TBS/0.1% Tween 20. Bound phage were eluted by incubation with 100 μl of 0.2M glycine-HCl/BSA, pH2.2 (1 mg/ml) for 10 minutes, then neutralised with 15 μl of 1M Tris-HCL (pH9.1). An aliquot of the Round 1 eluate was removed and titred. The remainder of the eluted phage were amplified by infection of E. coli ER2538 cells for 4.5 hours at 37° C. The cultures were centrifuged for 10 minutes at 10,000 rpm at 4° C. The supernatants were recovered, ⅙ volume PEG/NaCl (20% polyethylene glycol 8000; 2.5M NaCl) added, then incubated overnight at 4° C. The PEG-precipitated phage were centrifuged at 10,000 rpm for 15 minutes at 4° C. The supernatant was removed and the phage pellet resuspended in 200 μl TBS. […] The specificity of peptide-antibody binding was subsequently determined using both phage ELISA and SPOTs techniques.

[5] = tested on: anti-RhE monoclonal antibody E0003 (NaTH110-IH4); test: Biopanning of phage-peptide libraries with anti-RhE E0003; type: binding, Human; settings: IgM antibody
Excerpt: as §6
(§7) For each target antibody/library combination, a separate well of a 96-well Immulon 4 flat-bottomed ELISA plate (Thermo Labsystems) was coated with 5 μg of antibody in 150 μl ELISA coating buffer (15 mM Na2CO3, 35 mM NaHCO3, pH9.6). Plates were sealed and incubated at 4° C. overnight. Unbound antibody was discarded and 350 μl of blocking buffer (0.1M NaHCO3/3% skimmed milk powder) was added to each well. Plates were sealed and incubated for 1 hour at 4° C. The blocking buffer was removed and the wells were washed six times with 300 μl TBS/0.1% Tween 20. Approximately 2×10^11 plaque forming units (pfu) in 100 μl TBS/0.1% Tween 20 were added to each well and the plates were incubated at room temperature for 1 hour. Wells were washed ten times with 300 μl TBS/0.1% Tween 20. […] The specificity of peptide-antibody binding was subsequently determined using both phage ELISA and SPOTs techniques.

[6] = tested on: anti-Fy^a monoclonal antibody (LM487); test: SPOTs membrane hybridisation with anti-Fy^a antibody; type: binding, Murine
Method: as §5
A membrane was placed in a 50 ml Falcon tube and blocked overnight at 4° C. with gentle agitation in TBS/0.25% Tween 20/5% skimmed milk powder. A 2 μg/ml dilution of the primary (1°) antibody (monoclonal or polyclonal) was prepared in TBS/0.25% Tween20/5% skimmed milk powder before incubation with the membrane for 1 hour at room temperature on a spiral rotor. Following 4 washes, each for 5 minutes with 20 ml of TBS/0.25% Tween20, the membrane was incubated for 1 hour at room temperature with a 1/5000 dilution of the secondary (2°) antibody, prepared in TBS/0.25% Tween20/5% skimmed milk powder. […] Bound antibody was detected by chemiluminescence. […]

[7] = tested on: anti-Fy^a monoclonal antibody (LM487); test: Biopanning of phage-peptide libraries with anti-Fy^a LM487; type: binding, Murine; settings: three rounds of panning
Excerpt: as §6, §7

[8] = tested on: anti-RhE monoclonal antibody E0001 (HIRO17); test: Biopanning of phage-peptide libraries with anti-RhE E0001; type: binding, Human; settings: IgG1 antibody
Excerpt: as §6, §7

[9] = tested on: anti-RhD monoclonal antibody (T27); test: LiquiChip Ni-NTA microsphere bead assay (Luminex 100), anti-RhD; type: binding, Human; settings: FIG. 12; peptide with C-terminal 6 Histidine tag; Luminex 100 Analyser
Method: as §1, §2

[10] = tested on: anti-RhD monoclonal antibody (T27); test: Modified gel agglutination assay with superparamagnetic TALON beads, anti-RhD; type: binding, Human; settings: FIG. 13; His-tagged peptide; TALON Dynabeads; NaCl gel card; read visually; anti-Fy^b LM447 as comparison chamber
Method: as §3, §4
A 50 μl volume of diluted TALON beads was placed in the reaction chamber of an NaCl gel card (ID Microtyping System; Diamed), together with a 50 μl volume of diluted His-tagged peptide mimotope (e.g. RhD12) and 100 μl of test human monoclonal antibody (e.g. T27: anti-RhD). The gel card was incubated at 37° C. for 1 hour in an Incubator-ID (DiaMed). Following incubation, the card was centrifuged for 10 minutes in an ID Centrifuge 24S (DiaMed). Antibody-positive reactions are visualised by a layer of beads upon the surface of the gel matrix. […]

Binding of anti-Fy^b antibody LM447 to peptide immobilised on LiquiChip Ni-NTA microsphere beads (phycoerythrin signal) [1]: specific binding
Binding of anti-Fy^b antibody LM447 to peptide on superparamagnetic polystyrene beads, modified gel agglutination assay [2]: specific binding
Substance: FQPNPPPSFAAP [Fyb16]

SPOTs binding of anti-RhE monoclonal antibody E0002 [3]: Specific binding
Substance: RhE24: RhE peptide mimotope, Table 5 (GPSYYALITRYLGAA)
Selection by biopanning with anti-RhE antibody E0002 [4]: selected
Selection by biopanning with anti-RhE antibody E0003 [5]: selected

Reciprocal SPOTs hybridisation: binding of anti-Fy^a monoclonal antibody ([6]; FIG. 5, Spots 1-37 = Fya 1-37, Spots 38-40 = Fya17, Fya25, Fya35, Spot 41 Cpep75, 42 Cpep76, 43 CPep118, 44 Fyb1, membranes hybridised in parallel with both antibodies): Fy^a-specificity
Substance: PDGDYGANLEAAAP [CPep118, 14-mer immunisation peptide used to generate the anti-Fy^a antibody, reference compound]

Substance: Fya20: Fya peptide mimotope, Table 3; contains sequence identical to the Fy^a polymorphism (GIAEDDYGALSW)
Selection by biopanning with anti-Fy^a monoclonal antibody LM487 [7]: bound

SPOTs binding of anti-RhE monoclonal antibody E0002 [3]: Specific binding
Substance: RhE19: RhE peptide mimotope, Table 5 (SFQDALLSRWYS)
Selection by biopanning with anti-RhE antibody E0001 [8]: selected
Selection by biopanning with anti-RhE antibody E0002 [4]: selected

Binding of anti-RhD antibody T27 to peptide immobilised on LiquiChip Ni-NTA microsphere beads (phycoerythrin signal) [9]: specific binding
Binding of anti-RhD antibody T27 to peptide on superparamagnetic polystyrene beads, modified gel agglutination assay [10]: specific binding
Substance: RhD12: RhD peptide mimotope, Table 4 (HQNPWLLWPRGF)

SPOTs binding of anti-Fy^a antibody LM487 to membrane-synthesised peptide ([6]; FIG. 4, 37 peptides Fya1-37 synthesised as SPOTs): strong positive signal
Substance: Fya15: Fya peptide mimotope, Table 3; contains sequence identical to the Fy^a polymorphism (SDGDYGA)
Selection by biopanning with anti-Fy^a monoclonal antibody LM487 [7]: bound

SPOTs binding of anti-RhE monoclonal antibody E0002 [3]: Specific binding
Substance: RhE18: RhE peptide mimotope, Table 5 (IPEEALRARFKT)
Selection by biopanning with anti-RhE antibody E0002 [4]: selected
Selection by biopanning with anti-RhE antibody E0003 [5]: selected
